# Laboratory results: PubChem BioAssay (NCI)
#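 Each compound was tested at five concentrations against cells in 96-well plates for 48 hours. TGI marks complete inhibition of growth.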
# Key:
# Assay in all cases: growth of human tumour cells (NCI), 48 h
# [1] = test system: 786-0 renal
# [2] = test system: A498 renal
# [3] = test system: A549 NSCLC
# [4] = test system: ACHN renal
# [5] = test system: CAKI-1 renal
# [6] = test system: CCRF-CEM leukemia
# [7] = test system: COLO 205 colon
# [8] = test system: DLD-1 colon
# [9] = test system: DMS 273 small cell lung
# [10] = test system: EKVX NSCLC
# [11] = test system: HCC-2998 colon
# [12] = test system: HCT-116 colon
# [13] = test system: HCT-15 colon
# [14] = test system: HL-60(TB) leukemia
# [15] = test system: HOP-62 NSCLC
# [16] = test system: HOP-92 NSCLC
# [17] = test system: HT29 colon
# [18] = test system: IGROV1 ovarian
# [19] = test system: K-562 leukemia
# [20] = test system: KM12 colon
# [21] = test system: KM20L2 colon
# [22] = test system: LOX IMVI melanoma
# [23] = test system: LXFL 529 NSCLC
# [24] = test system: M14 melanoma
# [25] = test system: M19-MEL melanoma
# [26] = test system: MOLT-4 leukemia
# [27] = test system: NCI-H226 lung
# [28] = test system: NCI-H23 lung
# [29] = test system: NCI-H460 lung
# [30] = test system: NCI-H522 lung
# [31] = test system: OVCAR-4 ovarian
# [32] = test system: OVCAR-5 ovarian
# [33] = test system: OVCAR-8 ovarian
# [34] = test system: RPMI-8226 leukemia
# [35] = test system: RXF 393 renal
# [36] = test system: SF-268 CNS
# [37] = test system: SF-295 CNS
# [38] = test system: SF-539 CNS
# [39] = test system: SK-MEL-2 melanoma
# [40] = test system: SK-MEL-28 melanoma
# [41] = test system: SK-MEL-5 melanoma
# [42] = test system: SK-OV-3 ovarian
# [43] = test system: SN12C renal
# [44] = test system: SNB-19 CNS
# [45] = test system: SNB-75 CNS
# [46] = test system: SNB-78 CNS
# [47] = test system: SR leukemia
# [48] = test system: SW-620 colon
# [49] = test system: TK-10 renal
# [50] = test system: U251 CNS
# [51] = test system: UACC-257 melanoma
# [52] = test system: UACC-62 melanoma
# [53] = test system: UO-31 renal
# [54] = test system: BT-549 breast
# [55] = test system: DU-145 prostate
# [56] = test system: HS 578T breast
# [57] = test system: MALME-3M melanoma
# [58] = test system: MCF7 breast
# [59] = test system: MDA-MB-231 breast
# [60] = test system: MDA-MB-435
# [61] = test system: MDA-N
# [62] = test system: NCI/ADR-RES ovarian
# [63] = test system: OVCAR-3 ovarian
# [64] = test system: PC-3 prostate
# [65] = test system: T-47D breast
smiles,measurement,setting,value
Cn1c(=O)n(C2(C)C[Se]C2)c2ccccc21,TGI,[1],> 100 µM
same,TGI,[2],> 100 µM
same,TGI,[3],> 100 µM
same,TGI,[4],> 100 µM
same,TGI,[5],> 100 µM
same,TGI,[6],> 100 µM
same,TGI,[7],> 100 µM
same,TGI,[8],> 100 µM
same,TGI,[9],> 100 µM
same,TGI,[10],> 100 µM
same,TGI,[11],> 100 µM
same,TGI,[12],> 100 µM
same,TGI,[13],> 100 µM
same,TGI,[14],> 100 µM
same,TGI,[15],> 100 µM
same,TGI,[16],> 100 µM
same,TGI,[17],> 100 µM
same,TGI,[18],> 100 µM
same,TGI,[19],> 100 µM
same,TGI,[20],> 100 µM
same,TGI,[21],> 100 µM
same,TGI,[22],> 100 µM
same,TGI,[23],> 100 µM
same,TGI,[24],> 100 µM
same,TGI,[25],> 100 µM
same,TGI,[26],> 100 µM
same,TGI,[27],> 100 µM
same,TGI,[28],> 100 µM
same,TGI,[29],> 100 µM
same,TGI,[30],> 100 µM
same,TGI,[31],> 100 µM
same,TGI,[32],> 100 µM
same,TGI,[33],> 100 µM
same,TGI,[34],> 100 µM
same,TGI,[35],> 100 µM
same,TGI,[36],> 100 µM
same,TGI,[37],> 100 µM
same,TGI,[38],> 100 µM
same,TGI,[39],> 100 µM
same,TGI,[40],> 100 µM
same,TGI,[41],> 100 µM
same,TGI,[42],> 100 µM
same,TGI,[43],> 100 µM
same,TGI,[44],> 100 µM
same,TGI,[45],> 100 µM
same,TGI,[46],> 100 µM
same,TGI,[47],> 100 µM
same,TGI,[48],> 100 µM
same,TGI,[49],> 100 µM
same,TGI,[50],> 100 µM
same,TGI,[51],> 100 µM
same,TGI,[52],> 100 µM
same,TGI,[53],> 100 µM
CN(C)CCCC12CCCCC1=Nc1ccccc12 (configuration not stated),TGI,[1],> 100 µM
same,TGI,[2],> 100 µM
same,TGI,[3],> 100 µM
same,TGI,[4],> 100 µM
same,TGI,[54],> 100 µM
same,TGI,[5],> 100 µM
same,TGI,[6],> 100 µM
same,TGI,[7],> 100 µM
same,TGI,[55],> 100 µM
same,TGI,[10],> 100 µM
same,TGI,[11],> 100 µM
same,TGI,[12],> 100 µM
same,TGI,[13],> 100 µM
same,TGI,[14],76.3 µM
same,TGI,[15],> 100 µM
same,TGI,[16],> 100 µM
same,TGI,[56],> 100 µM
same,TGI,[17],> 100 µM
same,TGI,[18],> 100 µM
same,TGI,[19],> 100 µM
same,TGI,[20],> 100 µM
same,TGI,[22],> 100 µM
same,TGI,[24],> 100 µM
same,TGI,[57],> 100 µM
same,TGI,[58],> 100 µM
same,TGI,[59],> 100 µM
same,TGI,[60],> 100 µM
same,TGI,[61],> 100 µM
same,TGI,[26],> 100 µM
same,TGI,[27],> 100 µM
same,TGI,[28],> 100 µM
same,TGI,[29],> 100 µM
same,TGI,[30],> 100 µM
same,TGI,[62],> 100 µM
same,TGI,[63],> 100 µM
same,TGI,[31],> 100 µM
same,TGI,[32],> 100 µM
same,TGI,[33],> 100 µM
same,TGI,[64],> 100 µM
same,TGI,[34],> 100 µM
same,TGI,[35],> 100 µM
same,TGI,[36],> 100 µM
same,TGI,[37],> 100 µM
same,TGI,[38],> 100 µM
same,TGI,[39],> 100 µM
same,TGI,[40],> 100 µM
same,TGI,[41],> 100 µM
same,TGI,[42],> 100 µM
same,TGI,[43],> 100 µM
same,TGI,[44],> 100 µM
same,TGI,[45],> 100 µM
same,TGI,[47],69.2 µM
same,TGI,[48],> 100 µM
same,TGI,[65],> 100 µM
same,TGI,[49],> 100 µM
same,TGI,[50],> 100 µM
same,TGI,[51],> 100 µM
same,TGI,[52],> 100 µM
same,TGI,[53],> 100 µM
